Data as given in patent US8324267B2, “Kinase inhibitors and the use thereof” (Forschungzentrum Karlsruhe GmbH, priority 2001, dated 2012).

How the values were obtained:
[1] = biological target: VEGFR-2 (Homo sapiens, UniProt P35968); assay: Ligand-induced autophosphorylation in VEGFR-2-expressing PAE cells (immunoprecipitation, Western blot); format: cell-based; conditions: PAE/VEGFR-2 cells, VEGF stimulated; 0.5, 5 or 50 μM; FIG. 1
Description: VEGFR-2- and VEGFR-3-expressing PAE cells (pig aorta endothel cells) were incubated with 0.5 μM, 5 μM or 50 μM of the appropriate test compound. The cells were then stimulated with VEGF (VEGFR-2) or VEGF-C (VEGFR-3) or without growth factor as negative control. The cells were harvested after 15 min and immunoprecipitated with VEGFR-2 or VEGFR-3. The immunoprecipitates were blotted after electrophoresis and investigated with anti-phosphotyrosine antibody. The blots were detached and investigated with VEGFR-2 or VEGFR-3 antibody to check the loading.
PAE/VEGFR-2 or PAE/VEGFR-3 were seeded in 15 cm tissue culture tissues and cultivated to 50% confluence. The cells were then starved in serum-free medium (with 0.2% BSA) for 16-24 h (PAE/VEGFR-3) or 72 h […]. After preincubation with 5 ml of 1 mM serum-free medium (1 mM Na3VO4) and various inhibitor concentrations for 30-60 min, the cells were stimulated at 37° C. for 5 min (VEGFR-3) or 8 min (VEGFR-2). The cells were then rapidly washed twice with ice-cold PBS (with 1 mM Na3VO4) and lysed with ice-cold modified RIPA buffer (30 mM Tris-HCl, pH 7.4, 150 mM NaCl, 1 mM EDTA, 0.5% (v/v) Triton X100, 0.5% (w/v) sodium deoxycholate, 10 mM NaF) freshly prepared with 1 mM PMSF, 0.1 U/ml aprotinin, 10 ng/ml leupeptin and 5 mM Na3VO4. The cells were harvested from the plate with the aid of a rubber policeman and collected in centrifuge tubes on ice. The lysates were solubilized by forcing through a syringe with a 25 G needle, and were centrifuged at 4° C./13 000 rpm for 15 min to remove insoluble constituents.
The clear lysates were incubated with 4 μg of anti-VEGFR-2 (C-1158, Santa Cruz) or […] at 4° C. overnight.
The receptor-antibody complex was precipitated by adding 30 μl of protein A-Sepharose (Amersham)/tube and incubating at 4° C. for a further 2 hours. […]

[2] = tested on: chorioallantoic membrane (CAM); assay: Chorioallantoic membrane (CAM) angiogenesis assay; format: in vivo; conditions: chick embryos, 100 μg of inhibitor on methylcellulose disk, day 5 to day 7; FIG. 3
Description: The chorioallantoic membrane (CAM) assay was carried out as described (Wernert et al.) with chick embryos 5 days after fertilization. Methylcellulose disks (diameter 2 mm) with 100 μg of inhibitor were applied to the CAMs. Evaluation took place on day 7. A. negative control B. MAE 106-treated egg.
FIG. 3: Inhibition of angiogenesis in a chorioallantoic membrane (CAM). A: sham-treated cells (control). B: Mae106-treated cells of the CAM.

[3] = tested on: Human endothelial cells (HDMEC); assay: Apoptosis, Cell Death Detection ELISA (nucleosome ELISA); format: cell-based; conditions: 24 h, FIG. 5
Description: (§1) Human endothelial cells (HDMEC) and rat pancreatic tumor cells (1AS) were resuspended (10^5 cells/ml). 50 μl of cell suspension were seeded in 96-well cell culture plates and incubated at 37° C. for 24 h. The cells were then incubated with the stated concentrations of the various inhibitors for a further 24 h. The pro-apoptotic effect of the compounds was determined using the Cell Death Detection ELISA^plus kit (Roche Diagnostics GmbH, Mannheim) in accordance with the manufacturer's statements. The kit contains a photometric enzyme immunoassay for qualitative and quantitative in vitro determination of cytoplasmic histone-associated DNA fragments (mono- and oligo-nucleosomes) released through active cell death (apoptosis). […] The measurements relative to the untreated cells are plotted against the inhibitor concentration.
(§2) FIG. 5: Nucleosome ELISA test (Cell Death Detection ELISA). The extent of dead cells of the respective cell line is depicted (as relative absorption at 405 nm) in relation to the use of the inhibitors MAE87, MAE106 and MAZ51 and MAZ51-2.

[4] = tested on: rat pancreatic tumor cells (1AS); assay: as above; format: cell-based; conditions: 1AS cells, 24 h; FIG. 5
Description: as §1, §2

[5] = tested on: 1AS cells; assay: Growth of subcutaneous 1AS carcinomas in BDX rats; format: in vivo, rat; conditions: 1AS cells s.c., 4-5 mg/kg each day in DMSO, FIG. 7
Description: 1AS cells (5×10^5) were injected subcutaneously into 2 groups of BDX rats (8 rats per group). One group was subsequently injected with 100 μl of DMSO/animal per day up to the end of the experiment. The other group was injected with 100 μl of MAZ51 (10 mg/ml in DMSO)/animal, equivalent to 4-5 mg/kg, each day. The tumor volume was measured normally measured regularly after the injection of the tumor cells.
FIG. 7: Depiction of the tumor volume as a function of the number of days after tumor cell injection depending on the treatment of the 1AS tumor cells with MAZ51.

VEGFR-2, sequence (P35968 20-1356): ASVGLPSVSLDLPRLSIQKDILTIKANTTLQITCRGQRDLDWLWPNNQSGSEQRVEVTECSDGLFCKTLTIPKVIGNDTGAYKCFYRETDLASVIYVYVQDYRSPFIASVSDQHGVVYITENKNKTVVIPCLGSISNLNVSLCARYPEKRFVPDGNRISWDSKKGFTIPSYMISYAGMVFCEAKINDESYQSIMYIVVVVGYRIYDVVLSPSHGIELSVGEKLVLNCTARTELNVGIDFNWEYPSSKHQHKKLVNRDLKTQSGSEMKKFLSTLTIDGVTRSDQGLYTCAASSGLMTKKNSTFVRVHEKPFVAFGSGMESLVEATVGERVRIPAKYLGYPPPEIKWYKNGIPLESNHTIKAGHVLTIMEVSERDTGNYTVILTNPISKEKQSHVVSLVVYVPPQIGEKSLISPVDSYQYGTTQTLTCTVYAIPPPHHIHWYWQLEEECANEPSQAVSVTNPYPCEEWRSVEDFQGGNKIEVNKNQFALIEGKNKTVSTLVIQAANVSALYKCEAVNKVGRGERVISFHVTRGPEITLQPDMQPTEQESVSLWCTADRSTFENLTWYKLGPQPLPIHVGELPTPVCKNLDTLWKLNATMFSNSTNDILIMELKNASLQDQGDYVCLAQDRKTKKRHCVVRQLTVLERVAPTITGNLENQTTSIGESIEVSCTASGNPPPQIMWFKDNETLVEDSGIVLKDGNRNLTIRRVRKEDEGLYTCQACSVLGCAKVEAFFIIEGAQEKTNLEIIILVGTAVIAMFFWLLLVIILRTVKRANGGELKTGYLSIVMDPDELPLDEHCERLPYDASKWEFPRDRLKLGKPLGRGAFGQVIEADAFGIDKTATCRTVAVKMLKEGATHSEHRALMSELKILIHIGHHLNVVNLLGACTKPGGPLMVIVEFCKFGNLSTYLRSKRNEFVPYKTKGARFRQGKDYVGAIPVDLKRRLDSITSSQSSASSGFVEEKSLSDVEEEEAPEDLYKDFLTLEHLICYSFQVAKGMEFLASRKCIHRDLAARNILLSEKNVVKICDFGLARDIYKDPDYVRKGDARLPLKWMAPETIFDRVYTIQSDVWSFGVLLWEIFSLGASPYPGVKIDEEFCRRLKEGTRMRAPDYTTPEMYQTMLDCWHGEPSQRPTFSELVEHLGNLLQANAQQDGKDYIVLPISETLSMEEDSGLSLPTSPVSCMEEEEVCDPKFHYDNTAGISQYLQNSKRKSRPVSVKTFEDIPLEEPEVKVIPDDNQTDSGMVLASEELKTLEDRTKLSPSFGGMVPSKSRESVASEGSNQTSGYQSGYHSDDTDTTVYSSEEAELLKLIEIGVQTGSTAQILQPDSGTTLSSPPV

SMILES	inhibition of ligand-induced autophosphorylation of VEGFR-2 [1]	inhibition of angiogenesis (network of blood vessels) in the CAM [2]	induction of apoptosis (relative absorption at 405 nm) [3]	induction of apoptosis (relative absorption at 405 nm) [4]	inhibition of tumor growth (tumor volume) [5]
O=C1Nc2ccccc2C1=Cc1ccc(O)cc1O [MAE87, 3-(2,4-Dihydroxybenzylidene)-1,3-dihydroindol-2-one]	Inhibit the Ligand-Induced Autophosphorylation	Inhibit Angiogenesis	Induced Apoptosis	Induced Apoptosis	
COc1ccc(C=C2C(=O)Nc3ccccc32)cc1F [MAE106, 3-(3-Fluoro-4-methoxybenzylidene)-1,3-dihydroindole-2-one]	Inhibit the Ligand-Induced Autophosphorylation	highly underdeveloped	Induced Apoptosis	Induced Apoptosis	
CN(C)c1ccc(C=C2C(=O)Nc3ccccc32)c2ccccc12 [MAZ51, 3-(4-Dimethylaminonaphthalen-1-ylmethylene)-1,3-dihydroindol-2-one]	Inhibit the Ligand-Induced Autophosphorylation	Inhibit Angiogenesis	potent activator of apoptosis	potent activator of apoptosis	considerably inhibited
